The test system of one assay is HEK-293 cells. The assay is described as follows: HEK-293 cytotoxicity detection (CellTiter-Glo). As to conditions: 72 h incubation, CellTiter-Glo luminescence, read-out: HEK293. The format is cell-based. An outline of the steps: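 HEK-293 cells exposed 72 h to 8 compounds doses (4-fold dilutions, top stock 5 mM at 500×) in 0.2% DMSO. Viability by CellTiter-Glo luminescence; inhibition normalised to DMSO high control and low control, IC50 from four-parameter curve fit.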
A general note: ATP-based viability assays read luminescence as a measure of living cells.

The target in another assay is BTK (Homo sapiens, UniProt Q06187). The assay is described as follows: BTK cell degradation in TMD-8 cells, HTRF assay. The format is cell-based. Set-up: endogenous in cells; host or cells: TMD-8 cells. As to conditions: 6 h treatment, IC50 (DC50) of BTK degradation. An outline of the steps: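 BTK levels read by HTRF in lysates of TMD-8 cells exposed to compounds for 6 h, eight concentrations at 6-fold steps in 0.2% DMSO. Percent degradation versus DMSO and low controls was fitted with a four-parameter equation to give DC50; Dmax is maximal degradation.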
In general terms: Time-resolved FRET reads energy transfer from a long-lived donor to a nearby acceptor.

Where two headings read alike, the source gives them in different places.

Sequence of BTK (Q06187 whole entry): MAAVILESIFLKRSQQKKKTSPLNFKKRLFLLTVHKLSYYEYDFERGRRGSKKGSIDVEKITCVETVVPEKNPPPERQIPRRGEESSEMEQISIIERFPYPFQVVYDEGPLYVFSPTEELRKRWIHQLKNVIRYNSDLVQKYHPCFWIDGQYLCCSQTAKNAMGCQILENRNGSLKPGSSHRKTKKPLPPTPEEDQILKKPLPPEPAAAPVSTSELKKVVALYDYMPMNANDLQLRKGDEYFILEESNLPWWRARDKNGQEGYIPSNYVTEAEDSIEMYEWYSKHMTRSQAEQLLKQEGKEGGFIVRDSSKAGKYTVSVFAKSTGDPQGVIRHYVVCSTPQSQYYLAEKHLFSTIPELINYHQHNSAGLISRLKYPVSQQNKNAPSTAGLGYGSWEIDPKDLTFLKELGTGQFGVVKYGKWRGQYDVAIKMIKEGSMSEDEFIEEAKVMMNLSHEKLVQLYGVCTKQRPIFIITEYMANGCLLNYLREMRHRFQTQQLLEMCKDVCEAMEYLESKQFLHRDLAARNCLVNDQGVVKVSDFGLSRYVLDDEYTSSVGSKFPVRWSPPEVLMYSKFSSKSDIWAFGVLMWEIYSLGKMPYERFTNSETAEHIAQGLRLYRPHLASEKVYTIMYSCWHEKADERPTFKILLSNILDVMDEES

As to `Cc1c(C(=O)Nc2cn(C)cn2)ccc(-c2nn3c(c2C(N)=O)Nc2ccc(N4CCN(CC5CCN(c6ccc(N7CCC(=O)NC7=O)cc6)CC5)CC4)cc2CC3)c1F` [Example B87, 7-(4-((1-(4-(2,4-dioxotetrahydropyrimidin-1(2H)-yl)phenyl)piperidin-4-yl)methyl)piperazin-1-yl)-2-(2-fluoro-3-methyl-4-((1-methyl-1H-imidazol-4-yl)carbamoyl)phenyl)-9,10-dihydro-4H-benzo[d]pyrazolo[1,5-a][1,3]diazepine-3-carboxamide], the IC50 in the assay on HEK-293 cells (Homo sapiens, 72 h) is over 10000 nM. The DC50 (in general, the concentration giving 50% degradation) on BTK came to 0.591 nM.
Take `NC(=O)c1c(-c2ccc(Oc3ccccc3)cc2)nn2c1Nc1ccc(NC(=O)C3CCN(c4ccc5c(c4)C(=O)N(C4CCC(=O)NC4=O)C5=O)CC3)cc1CC2` (centres unmarked) [Example A1, 7-(1-(2-(2,6-dioxopiperidin-3-yl)-1,3-dioxoisoindolin-5-yl)piperidine-4-carboxamido)-2-(4-phenoxyphenyl)-9,10-dihydro-4H-benzo[d]pyrazolo[1,5-a][1,3]diazepine-3-carboxamide]: in the assay with HEK-293 cells (Homo sapiens, 72 h), the IC50 is 417 nM. The DC50 at BTK was determined as 3 nM.
`Cc1cccc(NC(=O)c2ccc(-c3nn4c(c3C(N)=O)Nc3ccc(N5CCN(C(=O)Cc6cccc(N7CCC(=O)NC7=O)c6)CC5)cc3CC4)c(F)c2C)n1` [Example B75, 7-(4-(2-(3-(2,4-dioxotetrahydropyrimidin-1(2H)-yl)phenyl)acetyl)piperazin-1-yl)-2-(2-fluoro-3-methyl-4-((6-methylpyridin-2-yl)carbamoyl)phenyl)-9,10-dihydro-4H-benzo[d]pyrazolo[1,5-a][1,3]diazepine-3-carboxamide]: the IC50 in the assay on HEK-293 cells (Homo sapiens, 72 h) was over 10000 nM. Also, the DC50 on BTK was 30.1 nM.
As to `Cc1cccc(NC(=O)c2ccc(-c3nn4c(c3C(N)=O)Nc3ccc(N5CCN(C[C@H]6CCN(c7ccc(N8CCC(=O)NC8=O)cc7)C6)CC5)cc3CC4)c(F)c2C)n1` [Example B74, (R)-7-(4-((1-(4-(2,4-dioxotetrahydropyrimidin-1(2H)-yl)phenyl)pyrrolidin-3-yl)methyl)piperazin-1-yl)-2-(2-fluoro-3-methyl-4-((6-methylpyridin-2-yl)carbamoyl)phenyl)-9,10-dihydro-4H-benzo[d]pyrazolo[1,5-a][1,3]diazepine-3-carboxamide], in the assay with HEK-293 cells (Homo sapiens, 72 h), the IC50 was over 10000 nM. Also, the DC50 on BTK was 7.15 nM.
As to `Cc1cccc(NC(=O)c2ccc(-c3nn4c(c3C(N)=O)Nc3ccc(N5CCN(CC6CCN(c7ccc8c(c7)CN(C7CCC(=O)NC7=O)C8=O)CC6)CC5)cc3CC4)c(F)c2C)n1` (centres unmarked) [Example B58, 7-(4-((1-(2-(2,6-dioxopiperidin-3-yl)-1-oxoisoindolin-5-yl)piperidin-4-yl)methyl)piperazin-1-yl)-2-(2-fluoro-3-methyl-4-((6-methylpyridin-2-yl)carbamoyl)phenyl)-9,10-dihydro-4H-benzo[d]pyrazolo[1,5-a][1,3]diazepine-3-carboxamide], in the assay on HEK-293 cells (Homo sapiens, 72 h), the IC50 is over 10000 nM. This molecule yielded a DC50 on BTK of 2.01 nM.
On to `NC(=O)c1c(-c2ccc(C(=O)Nc3cc(C(F)(F)F)ccn3)cc2)nn2c1Nc1ccc(N3CCN(CC4CCN(c5ccc(N6CCC(=O)NC6=O)cc5)CC4)CC3)cc1CC2` [Example B1, 7-(4-((1-(4-(2,4-dioxotetrahydropyrimidin-1(2H)-yl)phenyl)piperidin-4-yl)methyl)piperazin-1-yl)-2-(4-((4-(trifluoromethyl)pyridin-2-yl)carbamoyl)phenyl)-9,10-dihydro-4H-benzo[d]pyrazolo[1,5-a][1,3]diazepine-3-carboxamide], for which the IC50 with HEK-293 cells is over 10000 nM. The molecule further registered a DC50 on BTK of 0.561 nM.
As for `Cc1cccc(NC(=O)c2cnc(-c3nn4c(c3C(N)=O)Nc3ccc(N5CCN(CCc6cc(F)c(C7CCC(=O)NC7=O)c(F)c6)CC5)cc3CC4)cc2C)n1` (centres unmarked) [Example B37, 7-(4-(4-(2,6-dioxopiperidin-3-yl)-3,5-difluorophenethyl)piperazin-1-yl)-2-(4-methyl-5-((6-methylpyridin-2-yl)carbamoyl)pyridin-2-yl)-9,10-dihydro-4H-benzo[d]pyrazolo[1,5-a][1,3]diazepine-3-carboxamide], in the assay with HEK-293 cells (Homo sapiens, 72 h), the IC50 is over 10000 nM. Also, at BTK, half-maximal degradation (DC50) was put at 15.2 nM.
For the molecule `Cc1c(C(=O)Nc2cc(N3CCCC3)ccn2)ccc(-c2nn3c(c2C(N)=O)Nc2ccc(N4CCN(CC5CCN(c6ccc(N7CCC(=O)NC7=O)cc6)CC5)CC4)cc2CC3)c1F` [Example B49, 7-(4-((1-(4-(2,4-dioxotetrahydropyrimidin-1(2H)-yl)phenyl)piperidin-4-yl)methyl)piperazin-1-yl)-2-(2-fluoro-3-methyl-4-((4-(pyrrolidin-1-yl)pyridin-2-yl)carbamoyl)phenyl)-9,10-dihydro-4H-benzo[d]pyrazolo[1,5-a][1,3]diazepine-3-carboxamide], in the assay with HEK-293 cells (Homo sapiens, 72 h), the IC50 is over 10000 nM. The DC50 on BTK was 13.5 nM.
On to `NC(=O)c1c(-c2ccc(Oc3ccccc3)cc2)nn2c1Nc1ccc(NC(=O)C3CCN(c4cccc5c4C(=O)N(C4CCC(=O)NC4=O)C5=O)CC3)cc1CC2` (centres unmarked) [Example A11, 7-(1-(2-(2,6-dioxopiperidin-3-yl)-1,3-dioxoisoindolin-4-yl)piperidine-4-carboxamido)-2-(4-phenoxyphenyl)-9,10-dihydro-4H-benzo[d]pyrazolo[1,5-a][1,3]diazepine-3-carboxamide], for which, in the assay with HEK-293 cells (Homo sapiens, 72 h), the IC50 amounted to 826 nM. Further, at BTK, the DC50 turned out to be 5.71 nM.
In the case of `COc1cccc(C)c1C(=O)NCc1ccc(-c2nn3c(c2C(N)=O)Nc2ccc(N4CCN(CC5CCN(c6ccc(N7CCC(=O)NC7=O)cc6)CC5)CC4)cc2CC3)cc1C` [Example C38, 7-(4-((1-(4-(2,4-dioxotetrahydropyrimidin-1(2H)-yl)phenyl)piperidin-4-yl)methyl)piperazin-1-yl)-2-(4-((2-methoxy-6-methylbenzamido)methyl)-3-methylphenyl)-9,10-dihydro-4H-benzo[d]pyrazolo[1,5-a][1,3]diazepine-3-carboxamide], the IC50 in the assay on HEK-293 cells (Homo sapiens, 72 h) was over 10000 nM. Besides, it took 7.96 nM to reach half-maximal degradation at BTK (DC50).
As to `COc1ccc(F)cc1C(=O)NCc1ccc(-c2nn3c(c2C(N)=O)Nc2ccc(N4CCN(CC5CCN(c6ccc(N7CCC(=O)NC7=O)cc6)CC5)CC4)cc2CC3)cc1C` [Example C42, 7-(4-((1-(4-(2,4-dioxotetrahydropyrimidin-1(2H)-yl)phenyl)piperidin-4-yl)methyl)piperazin-1-yl)-2-(4-((5-fluoro-2-methoxybenzamido)methyl)-3-methylphenyl)-9,10-dihydro-4H-benzo[d]pyrazolo[1,5-a][1,3]diazepine-3-carboxamide], the IC50 in the assay with HEK-293 cells (Homo sapiens, 72 h) is over 10000 nM. The molecule also had a DC50 at BTK of 5.36 nM.
For `NC(=O)c1c(-c2ccc(Oc3ccccc3)cc2)nn2c1Nc1ccc(C(=O)N3CCN(CC4CCN(c5ccc6c(c5)C(=O)N(C5CCC(=O)NC5=O)C6=O)CC4)CC3)cc1CC2` (centres unmarked) [Example A13, 7-(4-((1-(2-(2,6-dioxopiperidin-3-yl)-1,3-dioxoisoindolin-5-yl)piperidin-4-yl)methyl)piperazine-1-carbonyl)-2-(4-phenoxyphenyl)-9,10-dihydro-4H-benzo[d]pyrazolo[1,5-a][1,3]diazepine-3-carboxamide] the same measures were 167 nM and 2.79 nM.
Consider `Cc1cccc(NC(=O)c2ncc(-c3nn4c(c3C(N)=O)Nc3ccc(N5CCN(C6CC(c7ccc([C@H]8CCC(=O)NC8=O)cc7)C6)CC5)cc3CC4)cc2C)n1` (stereo partly drawn) [Example B34, (R)-7-(4-(3-(4-(2,6-dioxopiperidin-3-yl)phenyl)cyclobutyl)piperazin-1-yl)-2-(5-methyl-6-((6-methylpyridin-2-yl)carbamoyl)pyridin-3-yl)-9,10-dihydro-4H-benzo[d]pyrazolo[1,5-a][1,3]diazepine-3-carboxamide], for which the IC50 in the assay with HEK-293 cells (Homo sapiens, 72 h) came to 168 nM. The same molecule showed a DC50 at BTK of 57.8 nM.
With `COc1ccc(C)cc1C(=O)NCc1ccc(-c2nn3c(c2C(N)=O)Nc2ccc(N4CCN(CC5CCN(c6ccc(N7CCC(=O)NC7=O)cc6)CC5)CC4)cc2CC3)cc1` [Example C2, 7-(4-((1-(4-(2,4-dioxotetrahydropyrimidin-1(2H)-yl)phenyl)piperidin-4-yl)methyl)piperazin-1-yl)-2-(4-((2-methoxy-5-methylbenzamido)methyl)phenyl)-9,10-dihydro-4H-benzo[d]pyrazolo[1,5-a][1,3]diazepine-3-carboxamide], in the assay on HEK-293 cells (Homo sapiens, 72 h), the IC50 is over 10000 nM. Besides, the DC50 at BTK is 0.52 nM.
For `Cc1cc(C(=O)Nc2cc(C(F)(F)F)ccn2)ccc1-c1nn2c(c1C(N)=O)Nc1ccc(N3CCN(CC4CCN(c5ccc(N6CCC(=O)NC6=O)cc5)CC4)CC3)cc1CC2` [Example B6, 7-(4-((1-(4-(2,4-dioxotetrahydropyrimidin-1(2H)-yl)phenyl)piperidin-4-yl)methyl)piperazin-1-yl)-2-(2-methyl-4-((4-(trifluoromethyl)pyridin-2-yl)carbamoyl)phenyl)-9,10-dihydro-4H-benzo[d]pyrazolo[1,5-a][1,3]diazepine-3-carboxamide], the IC50 in the assay with HEK-293 cells (Homo sapiens, 72 h) is over 10000 nM. In addition, the DC50 on BTK was determined as 2.22 nM.
In the same order, the values of `COc1cc(F)c(F)cc1C(=O)NCc1ccc(-c2nn3c(c2C(N)=O)Nc2ccc(N4CCN(CC5CCN(c6ccc(N7CCC(=O)NC7=O)cc6)CC5)CC4)cc2CC3)cc1C` [Example C33, 2-(4-((4,5-difluoro-2-methoxybenzamido)methyl)-3-methylphenyl)-7-(4-((1-(4-(2,4-dioxotetrahydropyrimidin-1(2H)-yl)phenyl)piperidin-4-yl)methyl)piperazin-1-yl)-9,10-dihydro-4H-benzo[d]pyrazolo[1,5-a][1,3]diazepine-3-carboxamide] are over 10000 nM and 9.19 nM.

The record behind these values is patent US20240246977A1, “DEGRADATION OF BRUTON'S TYROSINE KINASE (BTK) BY CONJUGATION OF BTK INHIBITORS WITH E3 LIGASE LIGAND AND METHOD OF USE” (BeiGene Switzerland GmbH, priority 2021, published 2024).
